Assay results as given in patent US20250304550A1, “BROMODOMAIN AND EXTRA-TERMINAL (BET) SUBFAMILY BROMODOMAIN 1 (BD1) SELECTIVE INHIBITORS AND METHODS USING SAME” (Baylor College of Medicine, priority 2022, published 2025).
Values belong to the molecule of their own block, whether it stands above or below them.

Key:
[1] = system: BD2; conditions: background statement; cited from earlier work
[2] = target: T1, BRDT-BD1 (Homo sapiens (Human), UniProt Q58F21); test: AlphaScreen bromodomain proximity assay (biotinylated JQ1 competition); assay type: binding; conditions: for BRDT-BD1 vs. BRDT-BD2 fold: BD1 selectivity, AlphaScreen IC50 ratio
[3] = target: T2, BRD4-BD1 (Homo sapiens (Human), UniProt O60885); test: as above; assay type: binding
[4] = target: BRD4-BD2 (Homo sapiens (Human), UniProt O60885); test: as above; assay type: binding; conditions: in Table 4 '—' = not efficient
[5] = system: AML cell line MV4; 11; test: Cell viability testing (CellTiterGlo, 72 hours); assay type: cell-based; conditions: Homo sapiens, '—' = not efficient
[6] = target: BRDT-BD2 (Homo sapiens (Human), UniProt Q58F21); test: AlphaScreen bromodomain proximity assay (biotinylated JQ1 competition); assay type: binding; conditions: in Table 4 '—' = not efficient
[7] = target: T1, BRDT-BD1; test: BromoKdELECT assay; assay type: binding
[8] = target: BRD3-BD1 (Homo sapiens (Human), UniProt Q15059); test: BromoKdELECT assay; assay type: binding
Chain of BRD3-BD1 (Q15059 34-140): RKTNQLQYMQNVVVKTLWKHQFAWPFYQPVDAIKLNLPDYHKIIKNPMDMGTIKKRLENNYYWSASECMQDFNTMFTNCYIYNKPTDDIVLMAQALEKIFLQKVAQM

[9] = system: MV4; 11 and MOLM-13 cells; test: Cell cycle analysis by flow cytometry; assay type: cell-based; conditions: 24 hours of treatment at the IC50
[10] = target: T2, BRD4-BD1; test: BromoKdELECT assay; assay type: binding
[11] = target: BRD2-BD1 (Homo sapiens (Human), UniProt P25440); test: BromoKdELECT assay; assay type: binding
Chain of BRD2-BD1 (P25440 74-180): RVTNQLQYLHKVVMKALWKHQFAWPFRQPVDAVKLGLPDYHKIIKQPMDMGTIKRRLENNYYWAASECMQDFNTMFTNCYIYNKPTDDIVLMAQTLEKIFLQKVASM

[12] = Metabolic stability assay in mouse liver microsomes; assay type: in vitro ADME; conditions: mouse, microsomes
[13] = Metabolic stability assay in human liver microsomes; assay type: in vitro ADME; conditions: human, microsomes
[14] = system: MYC and GAPDH expression in MV4; 11 and MOLM-13 cells; test: Quantitative RT-PCR analysis of MYC and GAPDH expression; assay type: cell-based; conditions: 8 hours of treatment, both cell lines
[15] = system: MV4; 11 and MOLM-13 cells; test: Apoptosis detection (Annexin V) by flow cytometry; assay type: cell-based; conditions: 72 hours of treatment
[16] = system: NanoLuc-BET BD1; test: NanoBRET target engagement intracellular BET bromodomain assay in HEK293 cells; assay type: cell-based, human; conditions: transiently transfected HEK293 cells
[17] = target: NanoLuc-BRDT-BD2 (Homo sapiens (Human), UniProt Q58F21); test: as above; assay type: cell-based; conditions: transiently transfected HEK293 cells
[18] = target: NanoLuc-BRD4-BD2 (Homo sapiens (Human), UniProt O60885); test: as above; assay type: cell-based; conditions: transiently transfected HEK293 cells
[19] = system: BRD4-dependent AML cell lines; test: Cell viability testing (CellTiterGlo, 72 hours) in AML cell lines; assay type: cell-based

Structure (SMILES): COc1cc(OC)c2c(=O)[nH]c(-c3cc(C)c(OCCO)c(C)c3)nc2c1 [RVX-208]
- BD2 potency [1]: > 100 nM
- selectivity over BD1 domains [1]: ~10 fold

- IC50 ([2]; AlphaScreen): 5.4 nM
- BRDT-BD1 vs. BRDT-BD2 fold [2]: 3,875 fold
- IC50 ([3]; AlphaScreen): 7.1 nM
- fold loss of selectivity over BRD4-BD2 ([3]; AlphaScreen): 1.6 fold
- BRD4-BD1 vs. BRD4-BD2 fold ([3]; BD1 selectivity, AlphaScreen IC50 ratio): 2,352 fold
- IC50 [4]: 16700 nM
- EC50 [5]: 143 nM
- IC50 [6]: 20900 nM
Structure (SMILES): CNC(=O)[C@@H](CC1CCN(C(=O)Cc2ccc3[nH]c(=O)ccc3c2)CC1)NC(=O)c1ccc(-c2ccccc2)cn1 [Compound 10, (R)-N-(1-(methylamino)-1-oxo-3-(1-(2-(2-oxo-1,2-dihydroquinolin-6-yl)acetyl)piperidin-4-yl)propan-2-yl)-5-phenylpicolinamide]

- IC50 ([2]; AlphaScreen): 2.1 nM
- fold more potent than (+)-JQ1 for BRDT-BD1 ([2]; AlphaScreen): 22 fold
- BRDT-BD1 vs. BRDT-BD2 fold [2]: ~5000 fold
- IC50 [7]: 0.22 nM
- IC50 [8]: 0.13 nM
- BRD3-BD1 selectivity over BRD3-BD2 ([8]; BromoKdELECT): 5920 fold
- IC50 [10]: 0.29 nM
- BRD2-BD1 selectivity over BRD2-BD2 ([11]; BromoKdELECT): 420 fold
- IC50 ([11]; printed as BRD2-BDT1): 0.26 nM
- metabolic stability in mouse liver microsomes (in words) [12]: labile
- half-life at 2 μM [13]: 33 min
- effect against BRDT-BD2 in NanoBRET (in words) [17]: no effect
- effect against BRD4-BD2 in NanoBRET (in words) [18]: no effect
Structure (SMILES): CNC(=O)[C@@H](CC1CCN(C(=O)Cc2ccc3[nH]c(=O)cc(C)c3c2)CC1)NC(=O)c1ccc(-c2ccc(C)cc2C)cn1 [Compound 2, (R)-5-(2,4-dimethylphenyl)-N-(3-(1-(2-(4-methyl-2-oxo-1,2-dihydroquinolin-6-yl)acetyl)piperidin-4-yl)-1-(methylamino)-1-oxopropan-2-yl)picolinamide]
- effect on the cell cycle (in words) [9]: induced Gi arrest
- MYC expression (in words) [14]: suppressed
- effects on GAPDH expression (in words) [14]: no/minimal effects
- apoptosis, Annexin V+ cells (in words) [15]: induced
- inhibition of tracer binding, BD1 vs BD2 (in words) [16]: more potent and selective for NanoLuc-BET BD1

- IC50 ([2]; AlphaScreen): 96.6 nM
- BRDT-BD1 vs. BRDT-BD2 fold [2]: 65 fold
- fold greater affinity for BRD4-BD1 than BRDT-BD1 ([3]; AlphaScreen): 4 fold
Structure (SMILES): CNC(=O)[C@H](CC1CCN(C(=O)Cc2ccc3[nH]c(=O)cc(C)c3c2)CC1)NC(=O)c1ccc(-c2ccc(C)cc2C)cn1 [Compound 3, (S)-5-(2,4-dimethylphenyl)-N-(3-(1-(2-(4-methyl-2-oxo-1,2-dihydroquinolin-6-yl)acetyl)piperidin-4-yl)-1-(methylamino)-1-oxopropan-2-yl)picolinamide]
- cellular potency in AML cell lines (in words) [19]: minimal effect
